ChEMBL document CHEMBL4725365, “Modified tetra-oxygenated xanthones analogues as anti-MRSA and P. aeruginosa agent and their synergism with vancomycin” (2020)
Values after ≈ are worked out from the molar mass of the structure shown. Active and inactive are the calls of the source. The rule behind the calls is not given here.

Key:
Shigella sonnei = assay: Antibacterial activity against Shigella sonnei; format: functional
Pseudomonas aeruginosa [1] = assay: Antibacterial activity against Pseudomonas aeruginosa; format: functional
Bacillus subtilis = assay: Antibacterial activity against Bacillus subtilis; format: functional
Salmonella typhi = assay: Antibacterial activity against Salmonella typhi; format: functional, Salmonella enterica subsp. enterica serovar Typhi; settings: Salmonella enterica
Enterococcus faecalis [2] = assay: Antibacterial activity against Enterococcus faecalis TISTR 459; format: functional
Staphylococcus aureus [3] = assay: Antibacterial activity against methicillin-resistant Staphylococcus aureus ATCC 43300; format: functional
Enterococcus faecalis [4] = assay: Antibacterial activity against vancomycin-resistant Enterococcus faecalis ATCC 51299; format: functional
Staphylococcus aureus [5] = assay: Synergistic antibacterial activity against methicillin-resistant Staphylococcus aureus ATCC 43300 in presence of vancomycin; format: functional
Pseudomonas aeruginosa [6] = assay: Induction of morphological changes in Pseudomonas aeruginosa assessed as cell deformation incubated for 24 hrs by scanning electron microscopic method; format: functional, organism-based
Pseudomonas aeruginosa [7] = assay: Synergistic antibacterial activity against Pseudomonas aeruginosa assessed as fractional inhibitory concentration index in presence of vancomycin; format: functional
Staphylococcus aureus [8] = assay: Synergistic antibacterial activity against methicillin-resistant Staphylococcus aureus ATCC 43300 assessed as fractional inhibitory concentration index in presence of vancomycin; format: functional
Pseudomonas aeruginosa [9] = assay: Synergistic antibacterial activity against Pseudomonas aeruginosa in presence of vancomycin; format: functional
Pseudomonas aeruginosa [10] = assay: Induction of morphological changes in Pseudomonas aeruginosa assessed as cell deformation incubated for 24 hrs in presence of vancomycin by scanning electron microscopic method; format: functional, organism-based
Staphylococcus aureus [11] = assay: Induction of morphological changes in methicillin-resistant Staphylococcus aureus ATCC 43300 assessed as cell deformation at MIC incubated for 24 hrs in presence of vancomycin by scanning electron microscopic method; format: functional, organism-based
Staphylococcus aureus [12] = assay: Induction of morphological changes in methicillin-resistant Staphylococcus aureus ATCC 43300 assessed as cell deformation incubated for 24 hrs by scanning electron microscopic method; format: functional, organism-based

| Structure (SMILES) | MIC (Shigella sonnei) [µg/mL] | MIC (Pseudomonas aeruginosa [1]) [µg/mL] | MIC (Bacillus subtilis) [µg/mL] | MIC (Salmonella typhi) [µg/mL] | MIC (Enterococcus faecalis [2]) [µg/mL] | MIC (Staphylococcus aureus [3]) [µg/mL] | MIC (Enterococcus faecalis [4]) [µg/mL] | MIC (Staphylococcus aureus [5]) [µg/mL] | Activity (Pseudomonas aeruginosa [6]) | fractional inhibitory concentration index (FICI) (Pseudomonas aeruginosa [7]) | fractional inhibitory concentration index (FICI) (Staphylococcus aureus [8]) | MIC (Pseudomonas aeruginosa [9]) [µg/mL] | Activity (Pseudomonas aeruginosa [10]) | Activity (Staphylococcus aureus [11]) | Activity (Staphylococcus aureus [12]) |
| --- | --- | --- | --- | --- | --- | --- | --- | --- | --- | --- | --- | --- | --- | --- | --- |
| COc1c(OS(=O)(=O)c2ccc(Br)cc2)cc2oc3cc(OS(=O)(=O)c4ccc(Br)cc4)c(CC=C(C)C)c(O)c3c(=O)c2c1CC=C(C)C | > 300 | 300 (≈ 354 µM) | > 300 | > 300 | > 300 | > 300 |  |  |  |  |  |  |  |  |  |
| CC(C)=CCc1c(O)cc2oc3cc(O)c(O)c(CC=C(C)C)c3c(=O)c2c1O | 18.8 (≈ 47.3 µM) | 18.8 (≈ 47.3 µM) | 18.8 (≈ 47.3 µM) | 18.8 (≈ 47.3 µM) | 9.37 (≈ 23.6 µM) | 4.68 (≈ 11.8 µM) |  |  |  |  |  |  |  |  |  |
| COc1cc2oc3cc(O)c(CC=C(C)C)c(O)c3c(=O)c2c(CC=C(C)C)c1OC | 150 (≈ 353 µM) | 18.8 (≈ 44.2 µM) | 75 (≈ 177 µM) | 150 (≈ 353 µM) | 75 (≈ 177 µM) | 18.8 (≈ 44.2 µM) |  |  |  |  |  |  |  |  |  |
| COc1cc2oc3cc(O)c(OC)c(CCC(C)C)c3c(=O)c2c(O)c1CCC(C)C | 150 (≈ 350 µM) | 150 (≈ 350 µM) | 150 (≈ 350 µM) | 150 (≈ 350 µM) | 75 (≈ 175 µM) | 37.5 (≈ 87.5 µM) |  |  |  |  |  |  |  |  |  |
| O=c1c2cc(O)c(O)cc2oc2cc(O)cc(O)c12 | > 300 | 37.5 (≈ 144 µM) | 37.5 (≈ 144 µM) | > 300 | 300 (≈ 1150 µM) | 18.8 (≈ 72.1 µM) | > 300 |  |  |  |  |  |  |  |  |
| COc1cc2oc3cc(OC)c(OC)c(CC=C(C)C)c3c(=O)c2c(O)c1CC=C(C)C | > 300 | 300 (≈ 684 µM) | 75 (≈ 171 µM) | 300 (≈ 684 µM) | 150 (≈ 342 µM) | > 300 | 300 (≈ 684 µM) |  |  |  |  |  |  |  |  |
| CN[C@H](CC(C)C)C(=O)N[C@H]1C(=O)N[C@@H](CC(N)=O)C(=O)N[C@H]2C(=O)N[C@H]3C(=O)N[C@H](C(=O)N[C@H](C(=O)O)c4cc(O)cc(O)c4-c4cc3ccc4O)[C@H](O)c3ccc(c(Cl)c3)Oc3cc2cc(c3O[C@@H]2O[C@H](CO)[C@@H](O)[C@H](O)[C@H]2O[C@H]2C[C@](C)(N)[C@H](O)[C@H](C)O2)Oc2ccc(cc2Cl)[C@H]1O [VANCOMYCIN] | 2.34 (≈ 1.61 µM) | 2.34 (≈ 1.61 µM) | 2.34 (≈ 1.61 µM) | 2.34 (≈ 1.61 µM) | 2.34 (≈ 1.61 µM) | 2.34 (≈ 1.61 µM) | 2.34 (≈ 1.61 µM) |  |  |  |  |  |  |  |  |
| COc1cc2oc3cc(O)c(OC)c(CCC(C)(C)OC(C)=O)c3c(=O)c2c2c1CCC(C)(C)O2 | 300 (≈ 619 µM) | 300 (≈ 619 µM) | 300 (≈ 619 µM) | 300 (≈ 619 µM) | > 300 | > 300 | > 300 |  |  |  |  |  |  |  |  |
| COc1cc2oc3cc(O)c(OC)c(CCC(C)(C)O)c3c(=O)c2c(O)c1CC=C(C)C | 300 (≈ 678 µM) | 18.8 (≈ 42.4 µM) | 9.37 (≈ 21.2 µM) | 300 (≈ 678 µM) | 150 (≈ 339 µM) | 18.8 (≈ 42.4 µM) | > 300 |  |  |  |  |  |  |  |  |
| COc1c(OCC=C(C)C)cc2oc3cc(OCC=C(C)C)c(CC=C(C)C)c(O)c3c(=O)c2c1CC=C(C)C | > 300 | 300 (≈ 549 µM) | > 300 | > 300 | 300 (≈ 549 µM) | > 300 |  |  |  |  |  |  |  |  |  |
| COc1cc2oc3cc(O)c(OC)c(CCC(C)(C)O)c3c(=O)c2c2c1CCC(C)(C)O2 | 300 (≈ 678 µM) | 300 (≈ 678 µM) | 150 (≈ 339 µM) | 300 (≈ 678 µM) | > 300 | 150 (≈ 339 µM) | > 300 |  |  |  |  |  |  |  |  |
| COc1cc2oc3cc(O)c(OC)c(CC=C(C)C)c3c(=O)c2c2c1CCC(C)(C)O2 | 300 (≈ 707 µM) | 300 (≈ 707 µM) | 75 (≈ 177 µM) | 300 (≈ 707 µM) | 75 (≈ 177 µM) | > 300 | 150 (≈ 353 µM) |  |  |  |  |  |  |  |  |
| COc1cc2oc3cc(O)c(OC)c(CC=C(C)C)c3c(=O)c2c(O)c1CC=C(C)C | > 300 | 9.37 (≈ 22.1 µM) | 2.34 (≈ 5.51 µM) | > 300 | 300 (≈ 707 µM) | 4.68 (≈ 11 µM) | 300 (≈ 707 µM) |  |  |  |  |  |  |  |  |
| COc1c(O)cc2oc3cc(O)c4c(c3c(=O)c2c1CCC(C)(C)O)OC(C)(C)CC4 | 300 (≈ 700 µM) | 300 (≈ 700 µM) | 37.5 (≈ 87.5 µM) | 300 (≈ 700 µM) | > 300 | 37.5 (≈ 87.5 µM) | > 300 |  |  |  |  |  |  |  |  |
| COc1c(O)cc2oc3cc4c(c(O)c3c(=O)c2c1CCC(C)(C)OC)CCC(C)(C)O4 | 300 (≈ 678 µM) | 75 (≈ 169 µM) | 9.37 (≈ 21.2 µM) | 300 (≈ 678 µM) | > 300 | 9.37 (≈ 21.2 µM) | > 300 |  |  |  |  |  |  |  |  |
| COc1c(O)cc2oc3cc4c(c(O)c3c(=O)c2c1CCC(C)(C)O)CCC(C)(C)O4 | 300 (≈ 700 µM) | 75 (≈ 175 µM) | 18.8 (≈ 43.8 µM) | 150 (≈ 350 µM) | > 300 | 18.8 (≈ 43.8 µM) | > 300 | 4.98 | Active | 0.187 | 0.375 | 9.52 | Active | Active | Active |
| COc1c(O)cc2oc3cc(O)c(CC=C(C)C)c(O)c3c(=O)c2c1CC=C(C)C [MANGOSTIN] | 150 (≈ 365 µM) | 0.292 (≈ 0.713 µM) | 2.34 (≈ 5.7 µM) | 18.8 (≈ 45.7 µM) | 150 (≈ 365 µM) | 0.585 (≈ 1.43 µM) | 150 (≈ 365 µM) | 0.877 | Active | 0.187 | 0.375 | 0.439 |  |  | Active |
| COc1cc2oc3cc(O)c(O)c(CC=C(C)C)c3c(=O)c2c(O)c1CC=C(C)C | 150 (≈ 365 µM) | 18.8 (≈ 45.7 µM) | 18.8 (≈ 45.7 µM) | 150 (≈ 365 µM) | 300 (≈ 731 µM) | 9.37 (≈ 22.8 µM) | 300 (≈ 731 µM) |  |  |  |  |  |  |  |  |
| COc1c(O)cc2oc3cc4c(c(O)c3c(=O)c2c1CC=C(C)C)CCC(C)(C)O4 | 300 (≈ 731 µM) | 2.34 (≈ 5.71 µM) | 2.34 (≈ 5.7 µM) | 300 (≈ 731 µM) | > 300 | 1.17 (≈ 2.85 µM) | > 300 | 1.75 | Active | 0.375 | 0.75 | 2.63 |  |  | Active |
| COc1cc2oc3cc(O)c(CC=C(C)C)c(O)c3c(=O)c2c(CC=C(C)C)c1O | 75 (≈ 183 µM) | 4.67 (≈ 11.4 µM) | 75 (≈ 183 µM) | 37.5 (≈ 91.4 µM) | 75 (≈ 183 µM) | 9.37 (≈ 22.8 µM) |  |  |  |  |  |  |  |  |  |
